Measured values published in US9290454B2, “Substituted isoquinolines as CRTH2 receptor modulators” (Merck Sharp & Dohme Corp., priority 2012, dated 2016).
pKi: −log10 of the molar value.

These compounds were tested against hCRTH2 (Homo sapiens (Human), UniProt Q9Y5Y4) (assay: Radioligand binding assay ([3H]-PGD2, SPA or filtration)). Settings: [3H]-PGD2 competition, membrane protein from HEK-hCRTH2 cell line, room temperature, SPA or filtration format.
Sequence of hCRTH2 (Q9Y5Y4 whole entry): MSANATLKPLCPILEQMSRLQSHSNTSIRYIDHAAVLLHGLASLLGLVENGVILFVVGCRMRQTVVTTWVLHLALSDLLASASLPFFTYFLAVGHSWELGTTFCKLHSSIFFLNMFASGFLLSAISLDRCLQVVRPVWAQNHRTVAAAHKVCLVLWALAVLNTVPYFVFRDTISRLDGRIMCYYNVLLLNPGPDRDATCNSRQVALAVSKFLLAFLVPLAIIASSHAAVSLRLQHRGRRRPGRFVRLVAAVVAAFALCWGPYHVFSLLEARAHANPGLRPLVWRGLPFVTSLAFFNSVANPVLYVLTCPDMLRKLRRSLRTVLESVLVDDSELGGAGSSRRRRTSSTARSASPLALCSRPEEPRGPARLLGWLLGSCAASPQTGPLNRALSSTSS
Protocol: Radioligand binding was performed using filtration or scintillation proximity assay (SPA) technology. SPA assays were done at room temperature in 10 mM HEPES pH 7.4, 1 mM EDTA containing 2 mM MnCl2 and 16 nM [^3H]-PGD2 (PerkinElmer, Waltham, Mass.) (164 Ci mmol-1), in a final volume of 0.05 mL. Competing ligands were diluted in dimethylsulfoxide and added using very low volumes (500 nL). The reaction was initiated by the addition of a mixture of 3.52 ug of membrane protein prepared from a human embryonic kidney (HEK)-hCRTH2 cell line adhered to 140 ug of wheatgerm agglutinin SPA beads (PerkinElmer). Total and non-specific binding were determined in the absence and the presence of a CRTH2 antagonist, respectively. The reaction was routinely conducted for 60 minutes at room temperature followed by centrifugation for 5 minutes at 1000 RPM. The radioactivity was measured with a TopCountNXT (PerkinElmer). Filtration binding assays were done in a similar way with minor differences. The assay volume was 0.20 mL and competing ligands in dimethylsulfoxide were added in 2 uL. [^3H]-PGD2 was used at 0.6 nM, and reactions were initiated by the addition of 10 ug of membrane protein. Reactions were terminated by filtration through GF/C filter plates (PerkinElmer) presoaked in 10 mM HEPES. After washing with buffer, plates were dried in a 50° C. oven for 1 h, scintillation cocktail was added and radioactivity was measured. Results determined using the SPA-based assay were similar to those from the filtration binding assay. Table A (below) sets forth the results of the binding assay for representative compounds of the invention.
In the case of `COc1ccccc1-n1c(CCCCC(=O)O)cc2cc(C(=O)N[C@H](C)c3ccc(F)cc3)ccc2c1=O` (single isomer, unassigned) [Example 3.6], the pKi was 6.44.
`COc1ccccc1-n1c(CCCCC(=O)O)cc2cc(C(=O)N[C@H](C)c3ccc(F)cc3)ccc2c1=O` (single isomer, unassigned) [Example 3.7] gave a pKi of 7.73.
`C[C@@H](NC(=O)c1ccc2c(=O)n(Cc3ccccc3)c(CCCCC(=O)O)cc2c1)c1ccc(F)cc1` [Example 1.1, (R)-5-(2-benzyl-6-((1-(4-fluorophenyl)ethyl)carbamoyl)-1-oxo-1,2-dihydroisoquinolin-3-yl)pentanoic acid] gave a pKi of 7.42.
For `C[C@@H](NC(=O)c1ccc2c(=O)n(Cc3ccc(F)cc3)c(CCCCC(=O)O)cc2c1)c1ccc(F)cc1` [Example 1.2, (R)-5-(2-(4-fluorobenzyl)-6-((1-(4-fluorophenyl)ethyl)carbamoyl)-1-oxo-1,2-dihydroisoquinolin-3-yl)pentanoic acid], the pKi was 7.31.
`C[C@@H](NC(=O)c1ccc2c(=O)n(-c3ccc(F)cc3)c(CC(=O)O)cc2c1)c1ccc(F)cc1` [Example 2.1, (R)-2-(2-(4-fluorophenyl)-6-((1-(4-fluorophenyl)ethyl)carbamoyl)-1-oxo-1,2-dihydroisoquinolin-3-yl)acetic acid] showed a pKi of 5.31.
Compound `O=C(O)CCCCc1cc2cc(C(=O)N[C@@H]3CCCc4ccccc43)ccc2c(=O)n1-c1ccc(F)cc1` [Example 3.1, (R)-5-(2-(4-fluorophenyl)-1-oxo-6-((1,2,3,4-tetrahydronaphthalen-1-yl)carbamoyl)-1,2-dihydroisoquinolin-3-yl)pentanoic acid] has a pKi of 8.24.
`O=C(O)CCCCc1cc2cc(C(=O)N[C@@H]3CCCc4cc(F)ccc43)ccc2c(=O)n1-c1ccc(F)cc1` [Example 3.2, (R)-5-(6-((6-fluoro-1,2,3,4-tetrahydronaphthalen-1-yl)carbamoyl)-2-(4-fluorophenyl)-1-oxo-1,2-dihydroisoquinolin-3-yl) pentanoic acid] showed a pKi of 8.19.
With `COc1ccc(-n2c(CCCCC(=O)O)cc3cc(C(=O)N[C@H](C)c4ccc(F)cc4)ccc3c2=O)cc1` [Example 3.3, (R)-5-(6-((1-(4-fluorophenyl)ethyl)carbamoyl)-2-(4-methoxyphenyl)-1-oxo-1,2-dihydroisoquinolin-3-yl)pentanoic acid] the pKi was 8.09.
In the case of `C[C@@H](NC(=O)c1ccc2c(=O)n(-c3ccc(C#N)cc3)c(CCCCC(=O)O)cc2c1)c1ccc(F)cc1` [Example 3.4, (R)-5-(2-(4-cyanophenyl)-6-((1-(4-fluorophenyl)ethyl)carbamoyl)-1-oxo-1,2-dihydroisoquinolin-3-yl)pentanoic acid], the pKi was 8.05.
With `COc1cccc(-n2c(CCCCC(=O)O)cc3cc(C(=O)N[C@H](C)c4ccc(F)cc4)ccc3c2=O)c1` [Example 3.5, (R)-5-(6-((1-(4-fluorophenyl)ethyl)carbamoyl)-2-(3-methoxyphenyl)-1-oxo-1,2-dihydroisoquinolin-3-yl)pentanoic acid] the pKi was 7.88.
For `C[C@@H]1CN(c2ccc(F)cc2)CCN1C(=O)c1ccc2c(=O)n(-c3ccc(F)cc3)c(CCCCC(=O)O)cc2c1` [Example 4.1, (R)-5-(2-(4-fluorophenyl)-6-(4-(4-fluorophenyl)-2-methylpiperazine-1-carbonyl)-1-oxo-1,2-dihydroisoquinolin-3-yl)pentanoic acid], the pKi was 7.65.
Work on `C[C@@H]1CN(c2ccccc2)CCN1C(=O)c1ccc2c(=O)n(-c3ccc(F)cc3)c(CCCCC(=O)O)cc2c1` [Example 4.2, (R)-5-(2-(4-fluorophenyl)-6-(2-methyl-4-phenylpiperazine-1-carbonyl)-1-oxo-1,2-dihydro-isoquinolin-3-yl)pentanoic acid] yielded a pKi of 7.87.
With `O=C(O)CCCCc1cc2cc(C(=O)NC3CC(=O)Nc4ccccc43)ccc2c(=O)n1-c1ccc(F)cc1` (stereo not shown) [Example 4.3, 5-(2-(4-fluorophenyl)-1-oxo-6-((2-oxo-1,2,3,4-tetrahydroquinolin-4-yl)carbamoyl)-1,2-dihydroisoquinolin-3-yl)pentanoic acid] the pKi was 7.68.
`C[C@@H](NC(=O)c1ccc2c(=O)n(-c3ccc(F)cc3)c(CCCCC(=O)O)cc2c1)c1ccc(F)cc1` [Example 4.4, (R)-5-(2-(4-fluorophenyl)-6-((1-(4-fluorophenyl)ethyl)carbamoyl)-1-oxo-1,2-dihydroisoquinolin-3-yl)pentanoic acid] gave a pKi of 8.29.
For `O=C(O)CCCCc1cc2cc(-c3cc(Cc4ccc(F)cc4)on3)ccc2c(=O)n1-c1ccc(F)cc1` [Example 5.1, 5-(6-(5-(4-fluorobenzyl)isoxazol-3-yl)-2-(4-fluorophenyl)-1-oxo-1,2-dihydroisoquinolin-3-yl)pentanoic acid], the pKi was 7.99.
`CC(c1ccc(F)cc1)c1nc(-c2ccc3c(=O)n(-c4ccc(F)cc4)c(CCCCC(=O)O)cc3c2)no1` (stereo not shown) [Example 7.3, 5-(2-(4-fluorophenyl)-6-(5-(1-(4-fluorophenyl)ethyl)-1,2,4-oxadiazol-3-yl)-1-oxo-1,2-dihydroisoquinolin-3-yl)pentanoic acid] was tested, and the pKi was 7.90.
`O=C(O)CCCCc1cc2cc(-c3noc(-c4ccc(C(F)(F)F)cc4)n3)ccc2c(=O)n1-c1ccc(F)cc1` [Example 7.4, 5-(2-(4-fluorophenyl)-1-oxo-6-(5-(4-(trifluoromethyl)phenyl)-1,2,4-oxadiazol-3-yl)-1,2-dihydroisoquinolin-3-yl)pentanoic acid] was tested, and the pKi was 7.83.
`C[C@@H](NC(=O)c1ccc2c(=O)n(-c3ccc(F)cc3)c(CCCCC(=O)NS(=O)(=O)C3CC3)cc2c1)c1ccc(F)cc1` [Example 8.2, (R)-3-(5-(cyclopropanesulfonamido)-5-oxopentyl)-2-(4-fluorophenyl)-N-(1-(4-fluorophenyl)ethyl)-1-oxo-1,2-dihydroisoquinoline-6-carboxamide] showed a pKi of 7.83.
In the case of `C[C@@H]1CN(c2ccc(F)cc2)CCN1C(=O)c1ccc2c(=O)n(-c3ccc(F)cc3)c(CCCCC(=O)NS(=O)(=O)C3CC3)cc2c1` [Example 8.3, (R)-N-(cyclopropylsulfonyl)-5-(2-(4-fluorophenyl)-6-(4-(4-fluorophenyl)-2-methylpiperazine-1-carbonyl)-1-oxo-1,2-dihydroisoquinolin-3-yl)pentanamide], the pKi was 7.77.
For `C[C@@H]1CN(c2ccccc2)CCN1C(=O)c1ccc2c(=O)n(-c3ccc(F)cc3)c(CCCCC(=O)NS(=O)(=O)C3CC3)cc2c1` [Example 8.4, (R)-N-(cyclopropylsulfonyl)-5-(2-(4-fluorophenyl)-6-(2-methyl-4-phenylpiperazine-1-carbonyl)-1-oxo-1,2-dihydroisoquinolin-3-yl)pentanamide], the pKi was 7.43.
For `O=C(CCCCc1cc2cc(-c3cc(Cc4ccc(F)cc4)on3)ccc2c(=O)n1-c1ccc(F)cc1)NS(=O)(=O)C1CC1` [Example 8.5, N-(cyclopropylsulfonyl)-5-(6-(5-(4-fluorobenzyl)isoxazol-3-yl)-2-(4-fluorophenyl)-1-oxo-1,2-dihydroisoquinolin-3-yl)pentanamide], the pKi was 7.77.
In the case of `O=C(CCCCc1cc2cc(-c3noc(Cc4ccc(F)cc4)n3)ccc2c(=O)n1-c1ccc(F)cc1)NS(=O)(=O)C1CC1` [Example 8.6, N-(cyclopropylsulfonyl)-5-(6-(5-(4-fluorobenzyl)-1,2,4-oxadiazol-3-yl)-2-(4-fluorophenyl)-1-oxo-1,2-dihydroisoquinolin-3-yl)pentanamide], the pKi was 7.76.
